Data reported in patent US20170273916A1, “METHODS FOR TREATING AND PREVENTING NEURODEGENERATIVE DISEASES” (priority 2016, published 2017).
Converted amounts (≈) assume the structure as drawn. “Also recorded” adds a separate entry of the source.

Legend:
NGF-induced PC12 cells = test: Viability of NGF-induced PC12 cells treated with extracts and compounds (CCK-8 assay); format: cell-based; details: Rattus norvegicus, PC-12, 24 hr incubation, CCK-8, FIGS. 1A-1E, read-out: IC50 (cell viability)
Method: PC12 cells were cultured in RPMI 1640 medium (5% fetal bovine serum, 10% heat-inactivated horse serum, 2 mM glutamine, 50 U/mL penicillin, […] streptomycin), at 37° C., 5% CO2, subculture twice a week.
PC12 cells need to be cultured in medium containing Nerve growth factor (NGF) 2.5S, (100 ng/mL) in advance for NGF-induced neuronal differentiation.
Cell Counting Kit-8(CCK-8) allows sensitive colorimetric assays for the determination of cell viability in cell proliferation and cytotoxicity assays. Dojindo's highly water-soluble tetrazolium salt, WST-8, is reduced by dehydrogenase activities in cells to give a yellow-color formazan dye, which is soluble in the tissue culture media. The amount of the formazan dye, generated by the activities of dehydrogenases in cells, is directly proportional to the number of living cells. The detection sensitivity of CCK-8 is higher than the other tetrazolium salts such as MTT, XTT, MTS or WST-1.
To optimize the exemplary extracts (ANCA, ANCA-D) and compounds (Antrocamol LT1, LT2, LT3) concentration for NGF-induced PC12 neural model, titration experiments were performed to determine the IC50 values of extracts and compounds. 5 x 10^4 NGF-induced PC12 cells were cultured in 96-well dish for 24 hr. Then the cells were cultured in medium with 1% fetal bovine serum, 2% heat-inactivated horse serum, 2 mM glutamine, 50 U/mL penicillin, […] streptomycin RPMI 1640 medium, then various concentrations of extracts [ANCA, ANCA-D (0.064, 0.32, 1.6, 8, 40, 200 μg/mL)] and compounds [Antrocamol LT1, LT2, LT3 (0.032, 0.16, 0.8, 4, 20, 100 μg/mL) were added individually and incubated for 24 hr. After treatment, the CCK-8 solution was added to each well of plates and incubates the plates for 4 hr in the incubator. The concentration of the formazan product was determined spectrophotometrically at an absorbance wavelength 450 nm and cell viability was expressed as a percentage of the corresponding control.

[1] = test system: Aβ-induced PC12 cell model; test: Therapeutic effect on Aβ-induced PC12 AD cell model (Aβ pretreatment, then sample; CCK-8 cell viability); format: cell-based, rat; details: Aβ 24 h, then sample 24 hr; for therapeutic effect on AD cell model (inhibition of Aβ-induced damage, cell viability): FIGS. 2A-2E, concentration not given
Method: (§1) β-Amyloid 1-40 (Aβ) was dissolved in 0.1% (v/v) trifluoroacetic acid (TFA) in water at 10 mg/ml and stored at −20° C. as a stock solution. Af3 was diluted to 0.5 mg/ml with phosphate-buffered saline solution (PBS, without Ca2+) and aggregate at 25° C. for 48 hr before use. To investigate the therapeutic effect of extracts (ANCA, ANCA-D) and compounds (Antrocamol LT1, LT2, LT3) on Alzheimer disease (AD) cell model in vitro, cultures were pretreated with Aβ for 24 h and then exposed to freshly prepared extracts (ANCA, ANCA-D) and compounds (Antrocamol LT1, LT2, LT3) for 24 hr before cell viability measurements. In contrast, to investigate the prophylactic effect of extracts (ANCA, ANCA-D) and compounds (Antrocamol LT1, LT2, LT3) on AD cell model, cultures were pretreated with extracts (ANCA, ANCA-D) and compounds (Antrocamol LT1, LT2, LT3) for 24 h and then exposure to aggregated Aβ for 24 h before cell viability measurements. The cell viability was estimated by below formulation:
(§2) Cell viability (%)=(Sample-Blank)/(Control-Blank)×100%

[2] = test system: Aβ-induced PC12 cell model; test: Prophylactic effect on Aβ-induced PC12 AD cell model (sample pretreatment, then aggregated Aβ; CCK-8 cell viability); format: cell-based, rat; details: sample 24 h, then aggregated Aβ 24 h; for prophylactic effect on AD cell model (preventing Aβ-induced neuronal damage, cell viability): FIGS. 3A-3E, concentration not given
Method: as §1, §2

Compound: COC1=C(OC)[C@H](O)[C@H](C/C=C(\C)CC/C=C(\C)CC(O)C=C(C)C)[C@@H](C)C1=O (stereo partly shown) [LT1, 4-hydroxy-5-[9-hydroxy-3,7,11-trimethyldodeca-2,6,10-trienyl]-2,3-dimethoxy-6-methyl-cyclohex-2-enone]
- IC50 (NGF-induced PC12 cells): 178 µg/mL (≈ 439 µM)
- inhibitory effect on Aβ-induced damage (therapeutic) ([1]; 25 μg/mL): weak
- inhibitory effect on Aβ-induced damage (therapeutic) ([1]; 50 μg/mL): significant inhibitory effect
- inhibitory effect on Aβ-induced damage (therapeutic) ([1]; 100 μg/mL): significant inhibitory effect
- therapeutic effect on AD cell model (inhibition of Aβ-induced damage, cell viability) [1]: significantly inhibited Aβ-induced damage and improved the cell viability
- prophylactic effect compared with extracts ([2]; 100 μg/mL, 50 μg/mL, 25 μg/mL): better prophylactic effect than extracts
- prophylactic effect on AD cell model (preventing Aβ-induced neuronal damage, cell viability) [2]: significant impact in preventing

Compound: COC1=C(OC)[C@H](OC(C)=O)[C@H](C/C=C(\C)CC/C=C(\C)CC(O)C=C(C)C)[C@@H](C)C1=O (stereo partly shown) [LT2, 4-acetoxy-5-[9-hydroxy-3,7,11-trimethyldodeca-2,6,10-trienyl]-2,3-dimethoxy-6-methyl-cyclohex-2-enone]
- IC50 (NGF-induced PC12 cells): 168 µg/mL (≈ 376 µM)
- inhibitory effect on Aβ-induced damage (therapeutic) ([1]; 25 μg/mL): weak
- inhibitory effect on Aβ-induced damage (therapeutic) ([1]; 50 μg/mL): significant inhibitory effect
- inhibitory effect on Aβ-induced damage (therapeutic) ([1]; 100 μg/mL): significant inhibitory effect
- therapeutic effect on AD cell model (inhibition of Aβ-induced damage, cell viability) [1]: significantly inhibited Aβ-induced damage and improved the cell viability
- prophylactic effect on AD cell model (preventing Aβ-induced neuronal damage, cell viability) [2]: significant impact in preventing; also recorded: weak preventing effect

Compound: COC1=C(OC)[C@H](O)[C@H](C/C=C(\C)CC/C=C(\C)C/C=C/C(C)(C)O)[C@@H](C)C1=O [LT3, (4R,5R,6R)-4-hydroxy-5-[(2E,6E,9E)-11-hydroxy-3,7,11-trimethyldodeca-2,6,9-trienyl]-2,3-dimethoxy-6-methylcyclohex-2-enone]
- IC50 (NGF-induced PC12 cells): 106 µg/mL (≈ 259 µM)
- inhibitory effect on Aβ-induced damage (therapeutic) ([1]; 25 μg/mL): weak
- inhibitory effect on Aβ-induced damage (therapeutic) ([1]; 50 μg/mL): significant inhibitory effect
- inhibitory effect on Aβ-induced damage (therapeutic) ([1]; 100 μg/mL): significant inhibitory effect
- therapeutic effect on AD cell model (inhibition of Aβ-induced damage, cell viability) [1]: significantly inhibited Aβ-induced damage and improved the cell viability
- prophylactic effect on AD cell model (preventing Aβ-induced neuronal damage, cell viability) [2]: significant impact in preventing; also recorded: weak preventing effect
